# Results taken from patent US10682319B2, “Necrosis inhibitors” (National Institute of Biological Sciences, Beijing, priority 2014, dated 2020).
# Test system: HT-29 cells
# Experiment: Necrosis assay (TNF-α/Smac mimetic/z-VAD induced necrosis, cell viability by ATP level)
# Format: cell-based
# Conditions: HT-29, TNF-α + Smac mimetic + z-VAD, 24 hrs, ATP level; values given as ranges in nM; read-out: EC50 (inhibition of necrosis in HT-29 cells)
# Procedure: HT-29 cells were cultured in McCoy's 5 A culture medium (Invitrogen). On day one, HT-29 cells were plated in 96-well assay plates at density of 2,500-3,500 cells per well. On day two, necrosis were induced by adding 20 ng/ml TNF-α (T), 100 nM Smac mimetic (S), and […] z-VAD (Z). At the same time, […] compound from a chemical library of ˜200,000 compounds was delivered into each well. After 24 hrs treatment, cell viability was determined by measuring ATP level using the CellTiter-Glo Luminescent Cell Viability Assay kit. A CellTiter-Glo Assay (Promega) was performed according to the manufacturer's instructions Luminescence was recorded with a PerkinElmer EnSpire Multimode Plate Reader. Survived cells were normalized to those cells treated with DMSO. Nec-1 was used as a positive control for screening necrosis inhibitors. Data are represented as mean±standard deviation of duplicates
# Dose-dependent inhibition of necrosis by the compounds in HT-29 cells were determined by measuring ATP levels as described above.
row,Compound,EC50
1,"CCC(C)(C)C(=O)N(C)Cc1ccc(C)s1 [Compound 42, N,2,2-trimethyl-N-((5-methylthiophen-2-yl)methyl)butanamide]",1 to 1000 nM
2,"CCC(C)(C)C(=O)N(O)Cc1ccc(F)c(F)c1F [Compound 97, N-hydroxy-2,2-dimethyl-N-(2,3,4-trifluorobenzyl)butanamide]",1 to 1000 nM
3,"CCC(C)(C)C(=O)N(C)Cc1ccc(Cl)cc1F [Compound 27, N-(4-chloro-2-fluorobenzyl)-N,2,2-trimethylbutanamide]",1 to 1000 nM
4,"CCC(C)(C)C(=O)N(C)Cc1ccc(F)c(F)c1F [Compound 49, N,2,2-trimethyl-N-(2,3,4-trifluorobenzyl)butanamide]",1 to 1000 nM
5,"CCC(C)(C)C(=O)N(C)Cc1ccccc1F [Compound 13, N-(2-fluorobenzyl)-N,2,2-trimethylbutanamide]",1 to 1000 nM
6,"CCC(C)(C)C(=O)N(C)Cc1ccccc1 [Compound 90, N-benzyl-N,2,2-trimethylbutanamide]",1 to 1000 nM
7,"CCC(C)(C)C(=O)N(C)Cc1cccc(C#N)c1 [Compound 17, N-(3-cyanobenzyl)-N,2,2-trimethylbutanamide]",1 to 1000 nM
8,"CCC(C)(C)C(=O)N(O)Cc1cc(F)cc(F)c1F [Compound 93, N-hydroxy-2,2-dimethyl-N-(2,3,5-trifluorobenzyl)butanamide]",1 to 1000 nM
9,"CCC(C)(C)C(=O)NCc1ccccc1 [Compound 58, N-benzyl-2,2-dimethylbutanamide]",1 to 1000 nM

# Same assay, conditions: Homo sapiens, HT-29, 24 h, HT-29, TNF-α + Smac mimetic + z-VAD, 24 hrs, ATP level; values given as ranges in uM; read-out: EC50 (inhibition of necrosis in HT-29 cells)
row,Compound,EC50
1,"CCC(C)(C)C(=O)N(C)Cc1ccn(C)n1 [Compound 45, N,2,2-trimethyl-N-((1-methyl-1H-pyrazol-3-yl)methyl)butanamide]",1000 to 100000 nM
2,"CCC(C)(C)C(=O)N[C@@H](CC(=O)NCCOCCOC)c1ccccc1 [Compound 102, (S)—N-(3-((2-(2-methoxyethoxy)ethyl)amino)-3-oxo-1-phenylpropyl)-2,2-dimethylbutanamide]",1000 to 100000 nM
3,"CN(Cc1cc(F)c(F)c(F)c1)C(=O)C1C(C)(C)C1(C)C [Compound 81, N,2,2,3,3-pentamethyl-N-(3,4,5-trifluorobenzyl)-cyclopropanecarboxamide]",1000 to 100000 nM
4,"CCC(C)(C)C(=O)N(C)Cc1ccccc1OC [Compound 15, N-(2-methoxybenzyl)-N,2,2-trimethylbutanamide]",1000 to 100000 nM
5,"CN(Cc1ccccc1F)C(=O)C1CCCCC1 [Compound 60, N-(2-fluorobenzyl)-N-methylcyclohexanecarboxamide]",1000 to 10000 nM
6,"CCC(C)(C)C(=O)N[C@@H](C(=O)NCc1ccccc1)c1ccccc1 [Compound 124, (R)—N-(2-(benzylamino)-2-oxo-1-phenylethyl)-2,2-dimethylbutanamide]",1000 to 100000 nM
7,"CCC(C)(C)C(=O)N[C@@H](C(=O)NCCOc1ccccc1)c1ccccc1 [Compound 127, (R)-2,2-dimethyl-N-(2-oxo-2-((2-phenoxyethyl)amino)-1-phenylethyl)butanamide]",1000 to 100000 nM
8,"CCC(C)(C)C(=O)N(C)Cc1cnc(C)s1 [Compound 44, N,2,2-trimethyl-N-((2-methylthiazol-5-yl)methyl)butanamide]",1000 to 10000 nM
9,"CCN(Cc1ccccc1F)C(=O)C(C)(C)CC [Compound 10, N-ethyl-N-(2-fluorobenzyl)-2,2-dimethylbutanamide]",1000 to 10000 nM
10,"CCC(C)(C)C(=O)N(C)Cc1c(F)c(F)cc(F)c1F [Compound 51, N,2,2-trimethyl-N-(2,3,5,6-tetrafluorobenzyl)butanamide]",1000 to 10000 nM
11,"CCC(C)(C)C(=O)N(C)Cc1cccnc1 [Compound 35, N,2,2-trimethyl-N-(pyridin-3-ylmethyl)butanamide]",1000 to 10000 nM
12,"CCC(C)(C)C(=O)N[C@@H](CC(=O)NCc1ccccc1)c1ccccc1 [Compound 107, (S)—N-(3-(benzylamino)-3-oxo-1-phenylpropyl)-2,2-dimethylbutanamide]",1000 to 100000 nM
13,CON(Cc1ccc(F)cc1)C(=O)C(C)(C)C(C)(F)F [Compound S15],1000 to 100000 nM
14,"CCC(C)(C)C(=O)N[C@@H](CC(=O)NC)c1ccccc1 [Compound 101, (S)-2,2-dimethyl-N-(3-(methylamino)-3-oxo-1-phenylpropyl)butanamide]",1000 to 100000 nM
15,"CCC(C)(C)C(=O)N(C)Cc1ccc2ccccc2c1 [Compound 46, N,2,2-trimethyl-N-(naphthalen-2-ylmethyl)butanamide]",1000 to 100000 nM
16,"CCC(C)(C)C(=O)N[C@@H](CC(=O)NC1CCCCC1)c1ccccc1 [Compound 104, (S)—N-(3-(cyclohexylamino)-3-oxo-1-phenylpropyl)-2,2-dimethylbutanamide]",1000 to 100000 nM
17,"CCC(C)(C)C(=O)NCc1ccccc1C(F)(F)F [Compound 4, 2,2-dimethyl-N-(2-(trifluoromethyl)benzyl)butanamide]",1000 to 10000 nM

row,Compound,EC50
1,CC(F)(F)C(C)(C)C(=O)N(O)Cc1ccc(F)c(F)c1 [Compound S11],1000 to 100000 nM
2,"CN(Cc1cc(F)cc(F)c1F)S(=O)(=O)C1CCCCC1 [Compound 79, N-methyl-N-(2,3,5-trifluorobenzyl)cyclohexanesulfonamide]",1000 to 100000 nM
3,"CCC(C)(C)C(=O)N(C)Cc1cc(F)ccc1C#N [Compound 57, N-(2-cyano-5-fluorobenzyl)-N,2,2-trimethylbutanamide]",1000 to 10000 nM
4,"CCN(Cc1cc(F)cc(F)c1F)C(=O)C1CCCCC1 [Compound 74, N-ethyl-N-(2,3,5-trifluorobenzyl)cyclohexanecarboxamide]",1000 to 100000 nM
5,"CCC(C)(C)C(=O)N[C@@H](CO)c1ccccc1 [Compound 109, (R)—N-(2-hydroxy-1-phenylethyl)-2,2-dimethylbutanamide]",1000 to 100000 nM
6,"CN(Cc1cc(F)cc(F)c1F)C(=O)C1(C(F)(F)F)CCCC1 [Compound 86, N-methyl-N-(2,3,5-trifluorobenzyl)-1-(trifluoromethyl)cyclopentanecarboxamide]",1000 to 100000 nM
7,"CN(Cc1ccccc1F)C(=O)NC1CCCCC1 [Compound 113, 3-cyclohexyl-1-(2-fluorobenzyl)-1-methylurea]",1000 to 100000 nM
8,"CCC(C)(CC)C(=O)NCc1cc(F)cc(F)c1F [Compound 73, 2-ethyl-2-methyl-N-(2,3,5-trifluorobenzyl)butanamide]",1000 to 10000 nM
9,"CNCC(C)(C)C(=O)N(C)Cc1cc(F)c(F)c(F)c1 [Compound 68, N,2,2-trimethyl-3-(methylamino)-N-(3,4,5-trifluorobenzyl) propanamide]",1000 to 100000 nM
10,CON(Cc1cc(F)cc(F)c1F)C(=O)C(C)(C)C(C)(F)F [Compound S20],1000 to 100000 nM
11,CC(F)(F)C(C)(C)C(=O)N(O)Cc1ccc(F)cc1F [Compound S10],1000 to 100000 nM
12,"CCC(C)(CC)C(=O)N(C)Cc1cc(F)c(F)c(F)c1 [Compound 72, 2-ethyl-N,2-dimethyl-N-(3,4,5-trifluorobenzyl)butanamide]",1000 to 10000 nM
13,C=CC(C)(C)C(=O)N(O)Cc1sccc1C [Compound 145],1000 to 100000 nM
14,C=CC(C)(C)C(=O)N(O)Cc1sc(C)cc1C [Compound 146],1000 to 100000 nM
15,CCC(C)(C)C(=O)N(O)Cc1cn(C)cc1C [Compound 144],1000 to 100000 nM
16,"CC(C)(C)C(=O)NCc1ccccc1 [Compound 2, N-benzylpivalamide]",1000 to 10000 nM
17,"COC(C)(C)C(=O)N(C)Cc1cc(F)cc(F)c1F [Compound 67, 2-methoxy-N,2-dimethyl-N-(2,3,5-trifluorobenzyl)propanamide]",1000 to 10000 nM
